# Source: PubChem BioAssay (NCI)
#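 Five concentrations, 48 hours, 96-well plates. TGI: concentration producing complete growth inhibition.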
# Columns and labels:
# Assay in all cases: growth of human tumour cells (NCI), 48 h
# [1] = system: PC-3 prostate
# [2] = system: OVCAR-4 ovarian
# [3] = system: HS 578T breast
# [4] = system: RXF 393 renal
# [5] = system: UACC-257 melanoma
# [6] = system: OVCAR-5 ovarian
# [7] = system: 786-0 renal
# [8] = system: MALME-3M melanoma
# [9] = system: IGROV1 ovarian
# [10] = system: T-47D breast
# [11] = system: MDA-MB-231 breast
# [12] = system: LOX IMVI melanoma
# [13] = system: SK-MEL-2 melanoma
# [14] = system: HCC-2998 colon
# [15] = system: SW-620 colon
# [16] = system: KM12 colon
# [17] = system: COLO 205 colon
# [18] = system: OVCAR-3 ovarian
# [19] = system: HCT-15 colon
# [20] = system: MOLT-4 leukemia
# [21] = system: EKVX NSCLC
# [22] = system: BT-549 breast
# [23] = system: SF-295 CNS
# [24] = system: K-562 leukemia
# [25] = system: NCI-H460 lung
# [26] = system: NCI-H226 lung
# [27] = system: HCT-116 colon
# [28] = system: CAKI-1 renal
# [29] = system: NCI-H522 lung
# [30] = system: SN12C renal
# [31] = system: UO-31 renal
# [32] = system: HOP-62 NSCLC
# [33] = system: SNB-75 CNS
# [34] = system: SF-268 CNS
# [35] = system: A549 NSCLC
# [36] = system: TK-10 renal
# [37] = system: U251 CNS
# [38] = system: SK-MEL-5 melanoma
# [39] = system: OVCAR-8 ovarian
# [40] = system: RPMI-8226 leukemia
# [41] = system: ACHN renal
# [42] = system: DU-145 prostate
# [43] = system: MDA-MB-435
# [44] = system: CCRF-CEM leukemia
# [45] = system: NCI/ADR-RES ovarian
# [46] = system: NCI-H23 lung
# [47] = system: MDA-N
# [48] = system: SNB-19 CNS
# [49] = system: SK-MEL-28 melanoma
# [50] = system: M14 melanoma
# [51] = system: SK-OV-3 ovarian
# [52] = system: MCF7 breast
# [53] = system: SF-539 CNS
# [54] = system: SR leukemia
# [55] = system: HT29 colon
# [56] = system: HL-60(TB) leukemia
# [57] = system: A498 renal
# [58] = system: HOP-92 NSCLC
# [59] = system: UACC-62 melanoma
compound,measurement,setting,value
Cc1c(NC(=O)CSC(=S)N(C)C)c(=O)n(-c2ccccc2)n1C,TGI,[1],> 100 µM
same,TGI,[2],> 100 µM
same,TGI,[3],> 100 µM
same,TGI,[4],> 100 µM
same,TGI,[5],> 100 µM
same,TGI,[6],> 100 µM
same,TGI,[7],> 100 µM
same,TGI,[8],> 100 µM
same,TGI,[9],> 100 µM
same,TGI,[10],> 100 µM
same,TGI,[11],> 100 µM
same,TGI,[12],> 100 µM
same,TGI,[13],> 100 µM
same,TGI,[14],> 100 µM
same,TGI,[15],> 100 µM
same,TGI,[16],> 100 µM
same,TGI,[17],> 100 µM
same,TGI,[18],> 100 µM
same,TGI,[19],> 100 µM
same,TGI,[20],> 100 µM
same,TGI,[21],> 100 µM
same,TGI,[22],> 100 µM
same,TGI,[23],> 100 µM
same,TGI,[24],> 100 µM
same,TGI,[25],> 100 µM
same,TGI,[26],> 100 µM
same,TGI,[27],> 100 µM
same,TGI,[28],> 100 µM
same,TGI,[29],> 100 µM
same,TGI,[30],> 100 µM
same,TGI,[31],> 100 µM
same,TGI,[32],> 100 µM
same,TGI,[33],> 100 µM
same,TGI,[34],> 100 µM
same,TGI,[35],> 100 µM
same,TGI,[36],> 100 µM
same,TGI,[37],> 100 µM
same,TGI,[38],> 100 µM
same,TGI,[39],> 100 µM
same,TGI,[40],> 100 µM
same,TGI,[41],> 100 µM
same,TGI,[42],> 100 µM
same,TGI,[43],> 100 µM
same,TGI,[44],> 100 µM
same,TGI,[45],> 100 µM
same,TGI,[46],> 100 µM
same,TGI,[47],> 100 µM
same,TGI,[48],> 100 µM
same,TGI,[49],> 100 µM
same,TGI,[50],> 100 µM
same,TGI,[51],> 100 µM
same,TGI,[52],> 100 µM
same,TGI,[53],> 100 µM
same,TGI,[54],> 100 µM
same,TGI,[55],> 100 µM
CC1(C)OC[C@H](COCOP2(=O)Oc3ccc4ccccc4c3-c3c(ccc4ccccc34)O2)O1,TGI,[1],27.6 µM
same,TGI,[3],> 100 µM
same,TGI,[56],48.5 µM
same,TGI,[6],33.4 µM
same,TGI,[57],31 µM
same,TGI,[7],81.6 µM
same,TGI,[8],37.2 µM
same,TGI,[9],72.2 µM
same,TGI,[10],36.2 µM
same,TGI,[11],31 µM
same,TGI,[14],31.3 µM
same,TGI,[15],29.7 µM
same,TGI,[16],29.4 µM
same,TGI,[58],28.5 µM
same,TGI,[18],29.6 µM
same,TGI,[19],28.6 µM
same,TGI,[20],41.4 µM
same,TGI,[22],31 µM
same,TGI,[23],32.2 µM
same,TGI,[24],80.6 µM
same,TGI,[25],33.3 µM
same,TGI,[26],37.3 µM
same,TGI,[27],28.3 µM
same,TGI,[30],30.1 µM
same,TGI,[31],32.6 µM
same,TGI,[32],40 µM
same,TGI,[34],39.1 µM
same,TGI,[35],63.3 µM
same,TGI,[36],35.6 µM
same,TGI,[37],31.9 µM
same,TGI,[38],73 µM
same,TGI,[39],63.3 µM
same,TGI,[41],37.3 µM
same,TGI,[42],32.2 µM
same,TGI,[43],26.5 µM
same,TGI,[44],84.8 µM
same,TGI,[45],36 µM
same,TGI,[59],46.9 µM
same,TGI,[46],29.6 µM
same,TGI,[47],26.8 µM
same,TGI,[48],34.7 µM
same,TGI,[49],27 µM
same,TGI,[50],32 µM
same,TGI,[51],73.3 µM
same,TGI,[52],12.2 µM
same,TGI,[53],39.8 µM
same,TGI,[54],45.6 µM
same,TGI,[55],31.3 µM
O=c1oc2ccccc2c(O)c1C(c1cccc(C(c2c(O)c3ccccc3oc2=O)c2c(O)c3ccccc3oc2=O)c1)c1c(O)c2ccccc2oc1=O,TGI,[1],> 100 µM
same,TGI,[3],> 100 µM
same,TGI,[4],> 100 µM
same,TGI,[5],> 100 µM
same,TGI,[56],45.8 µM
same,TGI,[6],> 100 µM
same,TGI,[57],> 100 µM
same,TGI,[7],45.1 µM
same,TGI,[9],> 100 µM
same,TGI,[10],> 100 µM
same,TGI,[11],99.3 µM
same,TGI,[12],60.2 µM
same,TGI,[13],> 100 µM
same,TGI,[14],46.2 µM
same,TGI,[15],> 100 µM
same,TGI,[16],> 100 µM
same,TGI,[17],> 100 µM
same,TGI,[58],> 100 µM
same,TGI,[18],> 100 µM
same,TGI,[19],> 100 µM
same,TGI,[20],63.3 µM
same,TGI,[21],> 100 µM
same,TGI,[22],> 100 µM
same,TGI,[23],> 100 µM
same,TGI,[24],53.5 µM
same,TGI,[25],> 100 µM
same,TGI,[26],> 100 µM
same,TGI,[27],> 100 µM
same,TGI,[28],49.5 µM
same,TGI,[29],35.6 µM
same,TGI,[30],83 µM
same,TGI,[32],> 100 µM
same,TGI,[33],41.6 µM
same,TGI,[34],> 100 µM
same,TGI,[35],> 100 µM
same,TGI,[36],> 100 µM
same,TGI,[37],> 100 µM
same,TGI,[38],95.7 µM
same,TGI,[39],> 100 µM
same,TGI,[40],76.6 µM
same,TGI,[41],> 100 µM
same,TGI,[42],> 100 µM
same,TGI,[43],> 100 µM
same,TGI,[44],69.3 µM
same,TGI,[45],> 100 µM
same,TGI,[59],95.7 µM
same,TGI,[46],> 100 µM
same,TGI,[47],> 100 µM
same,TGI,[49],> 100 µM
same,TGI,[50],> 100 µM
same,TGI,[51],> 100 µM
same,TGI,[52],61.3 µM
same,TGI,[53],53.9 µM
same,TGI,[54],58.8 µM
same,TGI,[55],> 100 µM
Cc1cccc(Nc2nc3ccccc3nc2NS(=O)(=O)c2ccccc2)c1,TGI,[1],72 µM
same,TGI,[2],19.7 µM
same,TGI,[3],> 100 µM
same,TGI,[4],> 100 µM
same,TGI,[5],> 100 µM
same,TGI,[56],37.8 µM
same,TGI,[6],> 100 µM
same,TGI,[7],> 100 µM
same,TGI,[8],> 100 µM
same,TGI,[9],> 100 µM
same,TGI,[10],> 100 µM
same,TGI,[11],> 100 µM
same,TGI,[12],> 100 µM
same,TGI,[13],68.6 µM
same,TGI,[14],6.93 µM
same,TGI,[15],> 100 µM
same,TGI,[16],> 100 µM
same,TGI,[17],30.7 µM
same,TGI,[58],63.7 µM
same,TGI,[18],80 µM
same,TGI,[19],65.9 µM
same,TGI,[20],61.6 µM
same,TGI,[21],> 100 µM
same,TGI,[22],> 100 µM
same,TGI,[23],> 100 µM
same,TGI,[24],> 100 µM
same,TGI,[25],51.4 µM
same,TGI,[26],> 100 µM
same,TGI,[27],> 100 µM
same,TGI,[28],> 100 µM
same,TGI,[29],73.9 µM
same,TGI,[30],> 100 µM
same,TGI,[31],59 µM
same,TGI,[32],87.1 µM
same,TGI,[33],63.8 µM
same,TGI,[34],> 100 µM
same,TGI,[35],> 100 µM
same,TGI,[36],> 100 µM
same,TGI,[37],59 µM
same,TGI,[38],> 100 µM
same,TGI,[39],> 100 µM
same,TGI,[40],> 100 µM
same,TGI,[41],> 100 µM
same,TGI,[42],> 100 µM
same,TGI,[43],> 100 µM
same,TGI,[44],86.5 µM
same,TGI,[45],> 100 µM
same,TGI,[59],> 100 µM
same,TGI,[46],93.1 µM
same,TGI,[47],> 100 µM
same,TGI,[48],91.5 µM
same,TGI,[49],> 100 µM
same,TGI,[50],> 100 µM
same,TGI,[51],> 100 µM
same,TGI,[52],> 100 µM
same,TGI,[53],> 100 µM
same,TGI,[54],> 100 µM
same,TGI,[55],> 100 µM
